Reference: ChEMBL document CHEMBL4308841, “Synthesis, in vitro antiproliferative activity, and kinase inhibitory effects of pyrazole-containing diarylureas and diarylamides” (Eur J Med Chem, 2018)

Experiments:
[1] = system: ACHN; assay: Growth inhibition of human ACHN cells assessed as cell growth at 0.01 uM incubated for 48 hrs by sulforhodamine B assay relative to control; format: functional; settings: read-out: Activity
[2] = system: T47D; assay: Growth inhibition of human T47D cells assessed as cell growth at 0.01 uM incubated for 48 hrs by sulforhodamine B assay relative to control; format: functional; settings: read-out: Activity
[3] = system: UACC-257; assay: Growth inhibition of human UACC257 cells assessed as cell growth at 100 uM incubated for 48 hrs by sulforhodamine B assay relative to control; format: functional; settings: UACC-257, 48 h, read-out: Activity
[4] = system: MDA-MB-231; assay: Growth inhibition of human MDA-MB-231 cells assessed as cell growth at 0.1 uM incubated for 48 hrs by sulforhodamine B assay relative to control; format: functional; settings: MDA-MB-231, 48 h, read-out: Activity
[5] = system: HT-29; assay: Growth inhibition of human HT-29 cells assessed as cell growth at 0.1 uM incubated for 48 hrs by sulforhodamine B assay relative to control; format: functional; settings: HT-29, 48 h, read-out: Activity
[6] = system: SK-MEL-5; assay: Growth inhibition of human SK-MEL-5 cells incubated for 48 hrs by sulforhodamine B assay; format: functional, cell-based; settings: SK-MEL-5, 48 h
[7] = system: NCI-H23; assay: Growth inhibition of human NCI-H23 cells assessed as cell growth at 0.01 uM incubated for 48 hrs by sulforhodamine B assay relative to control; format: functional; settings: NCI-H23, 48 h, read-out: Activity
[8] = system: SW-620; assay: Growth inhibition of human SW620 cells assessed as cell growth at 100 uM incubated for 48 hrs by sulforhodamine B assay relative to control; format: functional; settings: SW-620, 48 h, read-out: Activity
[9] = system: ACHN; assay: Growth inhibition of human ACHN cells assessed as cell growth at 0.1 uM incubated for 48 hrs by sulforhodamine B assay relative to control; format: functional; settings: read-out: Activity
[10] = system: CCRF-CEM; assay: Growth inhibition of human CCRF-CEM cells incubated for 48 hrs by sulforhodamine B assay; format: functional, cell-based
[11] = system: HOP-62; assay: Growth inhibition of human HOP62 cells assessed as cell growth at 0.1 uM incubated for 48 hrs by sulforhodamine B assay relative to control; format: functional; settings: HOP-62, 48 h, read-out: Activity
[12] = system: OVCAR-8; assay: Growth inhibition of human OVCAR8 cells assessed as cell growth at 0.01 uM incubated for 48 hrs by sulforhodamine B assay relative to control; format: functional; settings: OVCAR-8, 48 h, read-out: Activity
[13] = system: COLO 205; assay: Growth inhibition of human COLO205 cells incubated for 48 hrs by sulforhodamine B assay; format: functional, cell-based; settings: COLO 205, 48 h
[14] = system: Malme-3M; assay: Growth inhibition of human MALME-3M cells assessed as cell growth at 100 uM incubated for 48 hrs by sulforhodamine B assay relative to control; format: functional; settings: read-out: Activity
[15] = system: KM12; assay: Growth inhibition of human KM12 cells incubated for 48 hrs by sulforhodamine B assay; format: functional, cell-based; settings: KM12, 48 h
[16] = system: A549; assay: Growth inhibition of human A549/ATCC cells assessed as cell growth at 0.1 uM incubated for 48 hrs by sulforhodamine B assay relative to control; format: functional; settings: A549, 48 h, read-out: Activity
[17] = system: MOLT-4; assay: Growth inhibition of human MOLT4 cells assessed as cell growth at 0.01 uM incubated for 48 hrs by sulforhodamine B assay relative to control; format: functional; settings: MOLT-4, 48 h, read-out: Activity
[18] = system: HCT-15; assay: Growth inhibition of human HCT15 cells assessed as cell growth at 1 uM incubated for 48 hrs by sulforhodamine B assay relative to control; format: functional; settings: HCT-15, 48 h, read-out: Activity
[19] = system: HL-60(TB); assay: Growth inhibition of human HL-60(TB) cells assessed as cell growth at 1 uM incubated for 48 hrs by sulforhodamine B assay relative to control; format: functional; settings: HL-60, 48 h, read-out: Activity
[20] = system: NCI-H522; assay: Growth inhibition of human NCI-H522 cells assessed as cell growth at 0.1 uM incubated for 48 hrs by sulforhodamine B assay relative to control; format: functional; settings: NCI-H522, 48 h, read-out: Activity
[21] = system: DU-145; assay: Growth inhibition of human DU145 cells assessed as cell growth at 1 uM incubated for 48 hrs by sulforhodamine B assay relative to control; format: functional; settings: DU-145, 48 h, read-out: Activity
[22] = system: HT-29; assay: Growth inhibition of human HT-29 cells incubated for 48 hrs by sulforhodamine B assay; format: functional, cell-based; settings: HT-29, 48 h
[23] = system: NCI-H460; assay: Growth inhibition of human NCI-H460 cells assessed as cell growth at 0.01 uM incubated for 48 hrs by sulforhodamine B assay relative to control; format: functional; settings: NCI-H460, 48 h, read-out: Activity
[24] = system: ACHN; assay: Growth inhibition of human ACHN cells incubated for 48 hrs by sulforhodamine B assay; format: functional, cell-based
[25] = system: SF-295; assay: Growth inhibition of human SF295 cells assessed as cell growth at 1 uM incubated for 48 hrs by sulforhodamine B assay relative to control; format: functional; settings: SF-295, 48 h, read-out: Activity
[26] = system: SNB-19; assay: Growth inhibition of human SNB19 cells incubated for 48 hrs by sulforhodamine B assay; format: functional, cell-based; settings: SNB-19, 48 h
[27] = system: SK-OV-3; assay: Growth inhibition of human SKOV3 cells incubated for 48 hrs by sulforhodamine B assay; format: functional, cell-based; settings: SK-OV-3, 48 h
[28] = system: K562; assay: Growth inhibition of human K562 cells assessed as cell growth at 100 uM incubated for 48 hrs by sulforhodamine B assay relative to control; format: functional; settings: K562, 48 h, read-out: Activity
[29] = read-out: LC50 (the source's name)
[30] = read-out: pLC50 (the source's name) (converted)

Structure (SMILES): COc1cc(Cl)cc(-c2nn(-c3cccc(NC(=O)Nc4ccc(Cl)c(C(F)(F)F)c4)c3)cc2-c2ccncc2)c1
- growth at 0.01 µM [1]: 91%
- growth at 0.01 µM [2]: 98%
- growth at 100 µM [3]: -86%
- growth at 0.1 µM [4]: 91%
- growth at 0.1 µM [5]: 94%
- GI50 ([6]; read-out: GI50): 1.54 µM
- CC50 [6, 29]: 5.58 µM
- TGI ([6]; read-out: TGI): 29.3 µM
- GI50 ([6]; read-out: pGI50 (converted)): 1.55 µM
- CC50 [6, 30]: 5.62 µM
- TGI ([6]; read-out: pTGI (converted)): 8.32 µM
- growth at 0.01 µM [7]: 90%
- growth at 100 µM [8]: -58%
- growth at 0.1 µM [9]: 57%
- GI50 ([10]; read-out: GI50): 0.613 µM
- CC50 [10, 29]: > 100 µM
- TGI ([10]; read-out: TGI): 35.5 µM
- CC50 [10, 30]: > 100 µM
- growth at 0.1 µM [11]: 104%
- growth at 0.01 µM [12]: 98%
- GI50 ([13]; read-out: GI50): 1.53 µM
- CC50 [13, 29]: 6.33 µM
- TGI ([13]; read-out: TGI): 31.1 µM
- GI50 ([13]; read-out: pGI50 (converted)): 1.51 µM
- CC50 [13, 30]: 6.31 µM
- TGI ([13]; read-out: pTGI (converted)): 3.09 µM
- growth at 100 µM [14]: -35%
- GI50 ([15]; read-out: GI50): 0.555 µM
- CC50 [15, 29]: 4 µM
- TGI ([15]; read-out: TGI): 44.4 µM
- GI50 ([15]; read-out: pGI50 (converted)): 0.55 µM
- CC50 [15, 30]: 40.7 µM
- TGI ([15]; read-out: pTGI (converted)): 4.47 µM
- growth at 0.1 µM [16]: 98%
- growth at 0.01 µM [17]: 99%
- growth at 1 µM [18]: 35%
- growth at 1 µM [19]: 72%
- growth at 0.1 µM [20]: 77%
- growth at 1 µM [21]: 64%
- GI50 ([22]; read-out: GI50): 1.14 µM
- CC50 [22, 29]: 3.52 µM
- TGI ([22]; read-out: TGI): 43.8 µM
- GI50 ([22]; read-out: pGI50 (converted)): 1.15 µM
- CC50 [22, 30]: 38 µM
- TGI ([22]; read-out: pTGI (converted)): 4.37 µM
- growth at 0.01 µM [23]: 100%
- GI50 ([24]; read-out: GI50): 0.752 µM
- CC50 [24, 29]: > 100 µM
- TGI ([24]; read-out: TGI): 10.2 µM
- GI50 ([24]; read-out: pGI50 (converted)): 0.759 µM
- CC50 [24, 30]: > 100 µM
- TGI ([24]; read-out: pTGI (converted)): 14.5 µM
- growth at 1 µM [25]: 31%
- GI50 ([26]; read-out: GI50): 2.93 µM
- CC50 [26, 29]: > 100 µM
- TGI ([26]; read-out: TGI): 17.5 µM
- GI50 ([26]; read-out: pGI50 (converted)): 1.17 µM
- CC50 [26, 30]: > 100 µM
- TGI ([26]; read-out: pTGI (converted)): 17.8 µM
- GI50 ([27]; read-out: GI50): 3.15 µM
- CC50 [27, 29]: > 100 µM
- TGI ([27]; read-out: TGI): 95.5 µM
- GI50 ([27]; read-out: pGI50 (converted)): 3.16 µM
- CC50 [27, 30]: > 100 µM
- TGI ([27]; read-out: pTGI (converted)): 11.7 µM
- growth at 100 µM [28]: -51%
